Consider two compounds from publication PMC9097471, “Development of Selective Phosphatidylinositol 5-Phosphate 4-Kinase γ Inhibitors with a Non-ATP-competitive, Allosteric Binding Mode” (Journal of Medicinal Chemistry, 2022).

For one assay, the target named is MST4 (Homo sapiens, UniProt Q9P289). Description: Kinase panel, radiometric 33P filter binding. As to conditions: read-out: % activity remaining.
In a further assay the target is HIPK1 (Homo sapiens, UniProt Q86Z02). Description: Kinase panel, radiometric 33P filter binding. The following applies: read-out: % activity remaining.
In a further assay the target is ZAP70 (Homo sapiens, UniProt P43403). Description: Kinase panel, radiometric 33P filter binding. As to conditions: read-out: % activity remaining.
A further assay has as its target EPH-B3 (Homo sapiens, UniProt P54753). Description: Kinase panel, radiometric 33P filter binding. The following applies: read-out: % activity remaining.
Another assay has as its target HER4 (Homo sapiens, UniProt Q15303). In words: Kinase panel, radiometric 33P filter binding. The following applies: read-out: % activity remaining.
A further assay addresses MAPKAP-K3 (Homo sapiens, UniProt Q16644). Description: Kinase panel, radiometric 33P filter binding. The following applies: read-out: % activity remaining.
The target in a further assay is MARK4 (Homo sapiens, UniProt Q96L34). Description: Kinase panel, radiometric 33P filter binding. As to conditions: read-out: % activity remaining.
The target in another assay is PHK (Homo sapiens, UniProt Q16816). In words: Kinase panel, radiometric 33P filter binding. The following applies: read-out: % activity remaining.
The next assay addresses DYRK3 (Homo sapiens, UniProt O43781). In words: Kinase panel, radiometric 33P filter binding. The following applies: read-out: % activity remaining.
Another assay concerns the target PIM2 (Homo sapiens, UniProt Q9P1W9). In words: Kinase panel, radiometric 33P filter binding. The following applies: read-out: % activity remaining.
In another assay the target is HIPK3 (Homo sapiens, UniProt Q9H422). In words: Kinase panel, radiometric 33P filter binding. The following applies: read-out: % activity remaining.
Another assay deals with IRAK1 (Homo sapiens, UniProt P51617). In words: Kinase panel, radiometric 33P filter binding. The following applies: read-out: % activity remaining.
Another assay has as its target ASK1 (Homo sapiens, UniProt Q99683). In words: Kinase panel, radiometric 33P filter binding. As to conditions: read-out: % activity remaining.
For another assay, the target named is MELK (Homo sapiens, UniProt Q14680). In words: Kinase panel, radiometric 33P filter binding. The following applies: read-out: % activity remaining.
A further assay has as its target TTK (Homo sapiens, UniProt P33981). Description: Kinase panel, radiometric 33P filter binding. The following applies: read-out: % activity remaining.
The target of a further assay is BRSK1 (Homo sapiens, UniProt Q8TDC3). Description: Kinase panel, radiometric 33P filter binding. As to conditions: read-out: % activity remaining.
A further assay has as its target T1, PI5P4Kβ (Homo sapiens, UniProt P78356).
T1 sequence (P78356 1-416): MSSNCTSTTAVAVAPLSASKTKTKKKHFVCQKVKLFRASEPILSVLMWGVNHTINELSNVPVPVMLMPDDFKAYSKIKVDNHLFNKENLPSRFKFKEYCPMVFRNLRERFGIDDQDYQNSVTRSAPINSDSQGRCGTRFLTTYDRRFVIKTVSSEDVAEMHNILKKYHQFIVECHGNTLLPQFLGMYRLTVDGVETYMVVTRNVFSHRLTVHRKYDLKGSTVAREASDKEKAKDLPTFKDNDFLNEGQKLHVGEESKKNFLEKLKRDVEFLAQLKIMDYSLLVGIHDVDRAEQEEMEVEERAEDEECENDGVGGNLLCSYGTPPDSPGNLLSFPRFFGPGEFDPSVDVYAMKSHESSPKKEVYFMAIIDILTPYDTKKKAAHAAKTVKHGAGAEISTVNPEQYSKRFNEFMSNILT
Description: Thermal shift assay. As to conditions: read-out: ΔTm PI5P4Kβ, thermal shift, compound 63 μM.

By remaining activity is commonly meant the signal under treatment as a percentage of the control signal.

Chain of MELK (Q14680 whole entry): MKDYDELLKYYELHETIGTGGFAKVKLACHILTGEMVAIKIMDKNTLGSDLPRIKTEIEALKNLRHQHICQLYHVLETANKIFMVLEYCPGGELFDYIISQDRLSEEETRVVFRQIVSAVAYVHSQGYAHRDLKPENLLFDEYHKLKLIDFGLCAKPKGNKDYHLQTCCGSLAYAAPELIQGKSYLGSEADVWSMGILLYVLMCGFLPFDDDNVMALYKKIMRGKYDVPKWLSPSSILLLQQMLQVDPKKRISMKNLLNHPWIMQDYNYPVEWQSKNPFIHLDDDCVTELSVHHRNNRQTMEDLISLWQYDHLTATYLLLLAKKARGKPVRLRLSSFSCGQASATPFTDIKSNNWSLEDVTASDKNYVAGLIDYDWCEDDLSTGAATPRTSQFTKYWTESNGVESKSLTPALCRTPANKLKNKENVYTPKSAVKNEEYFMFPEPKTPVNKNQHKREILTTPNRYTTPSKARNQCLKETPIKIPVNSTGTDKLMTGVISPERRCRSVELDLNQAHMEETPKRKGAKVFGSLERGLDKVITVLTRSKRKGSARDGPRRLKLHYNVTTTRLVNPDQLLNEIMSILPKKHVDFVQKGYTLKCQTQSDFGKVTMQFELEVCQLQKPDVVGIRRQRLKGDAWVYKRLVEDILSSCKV
Chain of ASK1 (Q99683 whole entry): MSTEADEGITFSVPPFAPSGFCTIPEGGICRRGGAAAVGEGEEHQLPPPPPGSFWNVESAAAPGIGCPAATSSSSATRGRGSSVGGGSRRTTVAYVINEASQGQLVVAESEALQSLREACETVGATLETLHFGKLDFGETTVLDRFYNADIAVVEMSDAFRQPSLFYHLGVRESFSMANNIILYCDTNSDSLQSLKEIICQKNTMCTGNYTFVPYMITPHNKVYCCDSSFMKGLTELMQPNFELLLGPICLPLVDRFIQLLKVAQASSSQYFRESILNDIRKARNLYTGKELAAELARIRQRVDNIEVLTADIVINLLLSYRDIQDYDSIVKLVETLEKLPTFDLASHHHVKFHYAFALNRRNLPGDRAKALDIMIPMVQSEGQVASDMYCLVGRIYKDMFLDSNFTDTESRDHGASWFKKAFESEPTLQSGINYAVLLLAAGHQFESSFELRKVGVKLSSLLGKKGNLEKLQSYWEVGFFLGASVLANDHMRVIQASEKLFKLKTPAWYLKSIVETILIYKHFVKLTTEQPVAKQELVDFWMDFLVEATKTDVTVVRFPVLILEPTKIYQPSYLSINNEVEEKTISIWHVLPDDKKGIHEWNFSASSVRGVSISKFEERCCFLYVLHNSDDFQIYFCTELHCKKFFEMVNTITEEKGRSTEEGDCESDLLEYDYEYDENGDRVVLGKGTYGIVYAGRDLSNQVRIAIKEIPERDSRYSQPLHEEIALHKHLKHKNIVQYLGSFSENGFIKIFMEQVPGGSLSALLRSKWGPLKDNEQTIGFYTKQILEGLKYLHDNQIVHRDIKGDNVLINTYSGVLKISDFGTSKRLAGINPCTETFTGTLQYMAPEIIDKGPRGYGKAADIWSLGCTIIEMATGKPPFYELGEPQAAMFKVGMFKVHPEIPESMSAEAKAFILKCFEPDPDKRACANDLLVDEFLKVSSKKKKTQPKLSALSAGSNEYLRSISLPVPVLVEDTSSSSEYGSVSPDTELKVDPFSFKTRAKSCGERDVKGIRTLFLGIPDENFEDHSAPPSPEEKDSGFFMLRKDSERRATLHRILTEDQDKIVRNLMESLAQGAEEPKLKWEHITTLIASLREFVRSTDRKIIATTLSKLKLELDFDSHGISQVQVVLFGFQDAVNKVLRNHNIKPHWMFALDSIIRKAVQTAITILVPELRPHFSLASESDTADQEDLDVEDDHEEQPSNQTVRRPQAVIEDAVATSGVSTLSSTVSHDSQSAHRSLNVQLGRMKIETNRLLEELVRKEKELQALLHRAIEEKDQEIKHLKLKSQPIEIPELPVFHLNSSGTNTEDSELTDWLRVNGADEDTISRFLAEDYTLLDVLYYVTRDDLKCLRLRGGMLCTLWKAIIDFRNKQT
Chain of MARK4 (Q96L34 whole entry): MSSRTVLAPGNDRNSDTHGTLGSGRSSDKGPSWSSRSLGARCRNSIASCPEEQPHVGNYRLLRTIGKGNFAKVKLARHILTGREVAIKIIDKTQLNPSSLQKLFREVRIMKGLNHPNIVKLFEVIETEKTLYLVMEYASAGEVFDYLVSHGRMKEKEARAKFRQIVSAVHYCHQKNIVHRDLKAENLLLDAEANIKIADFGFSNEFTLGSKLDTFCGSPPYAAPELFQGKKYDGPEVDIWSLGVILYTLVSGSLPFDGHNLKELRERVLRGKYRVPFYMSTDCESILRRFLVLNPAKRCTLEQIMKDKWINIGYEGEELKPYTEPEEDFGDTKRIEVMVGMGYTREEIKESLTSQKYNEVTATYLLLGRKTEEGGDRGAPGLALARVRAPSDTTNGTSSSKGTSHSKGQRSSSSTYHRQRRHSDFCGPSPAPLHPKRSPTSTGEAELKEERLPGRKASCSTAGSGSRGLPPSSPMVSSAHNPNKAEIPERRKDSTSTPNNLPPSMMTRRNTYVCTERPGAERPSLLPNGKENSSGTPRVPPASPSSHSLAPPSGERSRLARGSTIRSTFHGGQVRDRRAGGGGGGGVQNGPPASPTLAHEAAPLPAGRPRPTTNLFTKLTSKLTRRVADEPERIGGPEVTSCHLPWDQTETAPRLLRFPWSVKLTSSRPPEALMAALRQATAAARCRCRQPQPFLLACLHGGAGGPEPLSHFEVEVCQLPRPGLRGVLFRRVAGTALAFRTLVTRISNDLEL
Chain of MAPKAP-K3 (Q16644 whole entry): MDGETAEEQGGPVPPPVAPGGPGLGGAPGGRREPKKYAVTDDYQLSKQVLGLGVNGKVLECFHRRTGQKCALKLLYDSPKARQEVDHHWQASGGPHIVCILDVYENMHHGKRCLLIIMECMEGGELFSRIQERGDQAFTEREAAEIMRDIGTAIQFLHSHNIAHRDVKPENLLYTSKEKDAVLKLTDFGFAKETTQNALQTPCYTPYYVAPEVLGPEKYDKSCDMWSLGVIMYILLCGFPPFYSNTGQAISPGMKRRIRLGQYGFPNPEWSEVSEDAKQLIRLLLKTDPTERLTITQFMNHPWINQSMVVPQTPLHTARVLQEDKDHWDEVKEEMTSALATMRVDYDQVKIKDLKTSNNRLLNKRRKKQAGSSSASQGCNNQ
Chain of ZAP70 (P43403 whole entry): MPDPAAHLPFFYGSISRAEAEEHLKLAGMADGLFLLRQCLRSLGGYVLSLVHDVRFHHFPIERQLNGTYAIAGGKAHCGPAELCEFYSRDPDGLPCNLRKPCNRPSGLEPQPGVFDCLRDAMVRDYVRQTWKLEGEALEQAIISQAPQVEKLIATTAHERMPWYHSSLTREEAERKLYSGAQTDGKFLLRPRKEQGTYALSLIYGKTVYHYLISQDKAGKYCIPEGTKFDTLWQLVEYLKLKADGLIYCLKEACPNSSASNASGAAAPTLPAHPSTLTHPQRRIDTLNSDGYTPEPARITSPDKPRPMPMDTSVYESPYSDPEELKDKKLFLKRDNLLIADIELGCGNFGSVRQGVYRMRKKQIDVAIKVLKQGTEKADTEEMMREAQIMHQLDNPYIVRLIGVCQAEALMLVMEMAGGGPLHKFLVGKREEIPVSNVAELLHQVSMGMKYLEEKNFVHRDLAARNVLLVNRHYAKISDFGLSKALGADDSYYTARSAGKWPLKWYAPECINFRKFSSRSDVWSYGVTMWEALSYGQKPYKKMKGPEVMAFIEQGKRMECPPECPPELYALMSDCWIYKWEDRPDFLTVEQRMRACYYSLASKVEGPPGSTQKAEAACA
Chain of HER4 (Q15303 26-1308): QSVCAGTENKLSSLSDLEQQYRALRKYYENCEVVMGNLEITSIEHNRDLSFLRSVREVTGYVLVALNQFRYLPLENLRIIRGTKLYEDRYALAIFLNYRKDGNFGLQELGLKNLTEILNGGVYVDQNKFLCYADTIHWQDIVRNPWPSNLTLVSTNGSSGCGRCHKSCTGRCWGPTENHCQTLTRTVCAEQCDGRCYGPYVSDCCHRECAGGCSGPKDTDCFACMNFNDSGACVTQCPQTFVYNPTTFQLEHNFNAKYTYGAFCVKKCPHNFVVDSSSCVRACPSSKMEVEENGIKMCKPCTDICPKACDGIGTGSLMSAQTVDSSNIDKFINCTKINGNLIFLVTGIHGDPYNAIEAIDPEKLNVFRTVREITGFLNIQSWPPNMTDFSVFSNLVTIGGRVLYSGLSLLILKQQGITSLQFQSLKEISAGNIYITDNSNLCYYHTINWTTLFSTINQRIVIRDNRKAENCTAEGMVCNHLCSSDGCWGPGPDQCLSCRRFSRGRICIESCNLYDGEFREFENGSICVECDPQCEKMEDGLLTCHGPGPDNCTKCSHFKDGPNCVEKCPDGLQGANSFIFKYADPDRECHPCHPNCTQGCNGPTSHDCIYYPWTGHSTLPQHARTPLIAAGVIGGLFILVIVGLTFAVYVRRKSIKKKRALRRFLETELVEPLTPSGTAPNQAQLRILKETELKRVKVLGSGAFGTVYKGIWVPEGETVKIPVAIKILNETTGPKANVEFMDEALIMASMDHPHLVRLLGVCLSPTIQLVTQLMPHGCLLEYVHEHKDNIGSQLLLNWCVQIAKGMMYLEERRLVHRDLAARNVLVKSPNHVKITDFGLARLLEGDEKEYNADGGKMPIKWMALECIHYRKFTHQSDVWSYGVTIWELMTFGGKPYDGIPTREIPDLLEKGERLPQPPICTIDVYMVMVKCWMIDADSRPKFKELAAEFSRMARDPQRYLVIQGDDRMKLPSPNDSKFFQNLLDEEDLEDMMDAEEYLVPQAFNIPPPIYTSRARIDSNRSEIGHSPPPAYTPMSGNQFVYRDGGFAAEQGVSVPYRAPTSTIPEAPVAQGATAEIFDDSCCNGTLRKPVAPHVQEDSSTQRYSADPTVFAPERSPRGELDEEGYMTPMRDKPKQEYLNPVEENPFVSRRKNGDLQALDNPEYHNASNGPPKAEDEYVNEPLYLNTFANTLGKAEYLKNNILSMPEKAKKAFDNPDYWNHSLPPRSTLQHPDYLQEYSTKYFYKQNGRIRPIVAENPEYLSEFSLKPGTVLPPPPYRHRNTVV
Description for ASK1: (§1) filter binding assay using 33P-g-ATPat the MRC PPU International Centre for Kinase Profiling, University of
Description for BRSK1: as §1
Description for DYRK3: as §1
Description for EPH-B3: as §1
Description for HER4: as §1
Description for HIPK1: as §1
Description for HIPK3: as §1
Description for MARK4: as §1
Description for MELK: as §1
Kinase % activity remaining s.d.
Description for PHK: as §1
Description for PIM2: as §1
Description for TTK: as §1

As for `CC(C)c1ccccc1-c1nc(NCc2ccccn2)c2c(ccn2C)n1` [Compound 40], the remaining activity at 10 µM on MST4 came out at 110%; at HIPK1 it was 104%; on ZAP70, 95%; on EPH-B3, 105%; on HER4 it was 112%; at MAPKAP-K3, 102%. The remaining activity at 10 µM amounted to 105% at MARK4; 107% at PHK; 128% at DYRK3; 110% on PIM2; 92% at HIPK3; 114% on IRAK1. Further, the remaining activity at 10 µM at ASK1 came out at 116%; on MELK it was 95%; on TTK, 94%; at BRSK1 it was 115%.

Take `FC(F)(F)c1ccccc1-c1nc(NCc2cccs2)c2ccccc2n1` [Compound 1, NIH-12848, reference compound]: at PI5P4Kβ, the ΔTm at 63 µM came to 0.6 ± 0.3 °C.
